{
  "source": "DBAASP",
  "assay_in_all_cases": "≥ marks a high value that may be exact or a test limit, other limits are often not marked, values filed in µg/mL are converted to µM",
  "key": {"[1]": {"tested_on": "Escherichia coli DH5alpha"}, "[2]": {"tested_on": "Staphylococcus aureus ATCC 6538"}, "[3]": {"tested_on": "Staphylococcus epidermidis ATCC 12228"}, "[4]": {"tested_on": "Micrococcus luteus ATCC 4698"}, "[5]": {"tested_on": "Staphylococcus aureus USA 100"}, "[6]": {"tested_on": "Staphylococcus aureus ATCC BAA-1556"}, "[7]": {"tested_on": "Streptococcus mutans UA159"}, "[8]": {"tested_on": "Enterococcus faecalis ATCC 29212"}, "[9]": {"tested_on": "Staphylococcus aureus ATCC 29213"}, "[10]": {"tested_on": "Pseudomonas aeruginosa ATCC 15442"}, "[11]": {"tested_on": "Pseudomonas aeruginosa ATCC 9027"}, "[12]": {"tested_on": "Candida albicans ATCC 90028"}, "[13]": {"tested_on": "Staphylococcus aureus USA 300"}, "[14]": {"tested_on": "Escherichia coli K12 MG1655"}, "[15]": {"tested_on": "Escherichia coli NCTC 10418"}, "[16]": {"tested_on": "Staphylococcus aureus NCTC 10788"}, "[17]": {"tested_on": "Enterococcus faecalis NCTC 12697"}, "[18]": {"tested_on": "Staphylococcus aureus NCTC 12493"}, "[19]": {"tested_on": "Candida albicans NCYC 1467"}, "[20]": {"tested_on": "Pseudomonas aeruginosa ATCC 27853"}, "[21]": {"tested_on": "Streptococcus pyogenes ATCC 19615"}, "Bacillus subtilis": {"tested_on": "Bacillus subtilis"}, "[22]": {"tested_on": "Klebsiella pneumoniae ATCC 13883"}, "[23]": {"tested_on": "Staphylococcus aureus ATCC 25923"}, "[24]": {"tested_on": "Salmonella enterica subsp. enterica serovar Typhimurium ATCC 14028"}, "Escherichia coli": {"tested_on": "Escherichia coli"}, "[25]": {"tested_on": "Bacillus cereus ATCC 11778"}, "[26]": {"tested_on": "Escherichia coli ATCC 35218"}},
  "data": [
    {"compound": "CC(C)C[C@H](NC(=O)[C@H](CC(C)C)NC(=O)[C@H](CCCCN)NC(=O)[C@H](CO)NC(=O)[C@H](CC(C)C)NC(=O)[C@H](C)NC(=O)[C@H](CCCCN)NC(=O)[C@H](Cc1ccccc1)NC(=O)[C@H](C)NC(=O)[C@H](C)NC(=O)CNC(=O)[C@H](C)NC(=O)[C@@H](N)Cc1ccccc1)C(=O)O", "note": "[FAGAAFKALSKLL]", "values": [
      {"measurement": "MIC", "setting": "[1]", "value": "≥ 299", "unit": "µM"},
      {"measurement": "MIC", "setting": "[2]", "value": 209, "unit": "µM"},
      {"measurement": "MIC", "setting": "[3]", "value": "> 299", "unit": "µM"},
      {"measurement": "MIC", "setting": "[4]", "value": "≥ 112", "unit": "µM"}
    ]},
    {"compound": "C[C@H](N)C(=O)N[C@@H](CCCN=C(N)N)C(=O)N[C@@H](C)C(=O)N[C@@H](CCCN=C(N)N)C(N)=O", "note": "[ARAR]", "values": [
      {"measurement": "MIC", "setting": "[5]", "value": "≥ 100", "unit": "µM"}
    ]},
    {"compound": "CC(=O)N[C@@H](Cc1c[nH]c2ccccc12)C(=O)N[C@@H](Cc1c[nH]c2ccccc12)C(=O)N[C@@H](CC(C)C)C(=O)N[C@@H](Cc1c[nH]c2ccccc12)C(=O)N[C@@H](Cc1c[nH]c2ccccc12)C(=O)N[C@@H](CC(C)C)C(=O)N[C@@H](CCCN=C(N)N)C(=O)N[C@@H](Cc1c[nH]c2ccccc12)C(=O)N[C@@H](CC(C)C)C(N)=O", "note": "[WWLWWLRWL]", "values": [
      {"measurement": "MIC", "setting": "[6]", "value": 25, "unit": "µM"}
    ]},
    {"compound": "CC[C@H](C)[C@H](NC(=O)[C@H](CCCN=C(N)N)NC(=O)[C@H](C)NC(=O)[C@H](Cc1ccccc1)NC(=O)[C@H](Cc1ccccc1)NC(=O)[C@H](CCCCN)NC(=O)[C@H](CCCN=C(N)N)NC(=O)[C@H](CC(C)C)NC(=O)[C@@H](NC(=O)[C@H](CCCCN)NC(=O)[C@@H]1CCCN1C(=O)[C@H](CC(C)C)NC(=O)[C@@H](N)Cc1ccccc1)[C@@H](C)O)C(=O)N[C@@H](CCCN=C(N)N)C(=O)NCC(=O)NCC(=O)N[C@@H](CCCN=C(N)N)C(=O)N[C@@H](C)C(=O)N[C@@H](C)C(=O)N[C@H](C(=O)N[C@@H](CC(C)C)C(=O)N[C@@H](CC(N)=O)C(=O)N[C@@H](C)C(=O)O)C(C)C", "note": "[FLPKTLRKFFARIRGGRAAVLNA]", "values": [
      {"measurement": "MIC", "setting": "[7]", "value": 8.48, "unit": "µM"}
    ]},
    {"compound": "CC[C@H](C)[C@H](NC(=O)[C@H](C)NC(=O)[C@@H](N)C(C)C)C(=O)N[C@@H](C)C(=O)N[C@@H](CC(C)C)C(=O)N[C@@H](CCCCN)C(=O)N[C@@H](C)C(=O)N[C@@H](C)C(=O)N[C@@H](C)C(=O)N[C@@H](Cc1ccc(O)cc1)C(=O)N[C@@H](Cc1cnc[nH]1)C(=O)N[C@H](C(=O)N[C@@H](Cc1cnc[nH]1)C(=O)N[C@@H](CCCCN)C(=O)N[C@@H](CCC(=O)O)C(=O)O)[C@@H](C)O", "note": "[VAIALKAAAYHTHKE]", "values": [
      {"measurement": "MIC", "setting": "[8]", "value": 78.9, "unit": "µM"},
      {"measurement": "MIC", "setting": "[9]", "value": 39.4, "unit": "µM"},
      {"measurement": "MIC", "setting": "[10]", "value": "≥ 78.9", "unit": "µM"}
    ]},
    {"compound": "CC(C)C[C@H](NC(=O)[C@H](Cc1c[nH]c2ccccc12)NC(=O)[C@H](Cc1c[nH]c2ccccc12)NC(=O)[C@H](CC(C)C)NC(=O)[C@H](Cc1c[nH]c2ccccc12)NC(=O)[C@@H](N)Cc1c[nH]c2ccccc12)C(=O)N[C@@H](Cc1c[nH]c2ccccc12)C(=O)N[C@@H](Cc1c[nH]c2ccccc12)C(=O)N[C@@H](CCCN=C(N)N)C(N)=O", "note": "[WWLWWLWWR]", "values": [
      {"measurement": "MIC", "setting": "[6]", "value": 3.12, "unit": "µM"}
    ]},
    {"compound": "NCCCC[C@H](NC(=O)[C@H](Cc1cnc[nH]1)NC(=O)CN)C(=O)O", "note": "[GHK]", "values": [
      {"measurement": "MIC", "setting": "[11]", "value": "> 100", "unit": "µM"},
      {"measurement": "MIC", "setting": "[5]", "value": "≥ 100", "unit": "µM"},
      {"measurement": "MIC", "setting": "[12]", "value": "≥ 100", "unit": "µM"},
      {"measurement": "MIC", "setting": "[13]", "value": "≥ 100", "unit": "µM"}
    ]},
    {"compound": "CC[C@H](C)[C@H](NC(=O)[C@H](CC(C)C)NC(=O)[C@H](Cc1ccc(O)cc1)NC(=O)[C@H](CC(C)C)NC(=O)[C@H](CC(C)C)NC(=O)[C@H](CC(C)C)NC(=O)[C@H](CCCN=C(N)N)NC(=O)[C@H](CC(C)C)NC(=O)[C@H](CCCN=C(N)N)NC(=O)[C@H](C)NC(=O)[C@H](C)NC(=O)[C@H](C)N)C(=O)N[C@H](C(=O)N[C@@H](CCCN=C(N)N)C(=O)N[C@@H](CCCN=C(N)N)C(=O)O)[C@@H](C)O", "note": "[AAARLRLLLYLITRR]", "values": [
      {"measurement": "MIC", "setting": "[14]", "value": "≥ 71.1", "unit": "µM"}
    ]},
    {"compound": "CC[C@H](C)[C@H](NC(=O)[C@H](CCC(=O)O)NC(=O)[C@H](CC(N)=O)NC(=O)[C@H](CC(C)C)NC(=O)[C@H](C)NC(=O)[C@H](C)NC(=O)[C@H](CCCCN)NC(=O)CNC(=O)[C@H](C)NC(=O)[C@H](CC(N)=O)NC(=O)[C@H](CCCCN)NC(=O)[C@H](CC(C)C)NC(=O)[C@@H](NC(=O)[C@H](CCC(=O)O)NC(=O)[C@H](CCCCN)NC(=O)[C@H](Cc1c[nH]c2ccccc12)NC(=O)[C@H](CC(C)C)NC(=O)[C@H](C)N)C(C)C)C(=O)N[C@@H](CC(N)=O)C(=O)N[C@@H](CC(N)=O)C(=O)N[C@@H](CC(C)C)C(=O)N[C@H](C(=O)N[C@@H](CCC(N)=O)C(N)=O)C(C)C", "note": "[ALWKEVLKNAGKAALNEINNLVQ]", "values": [
      {"measurement": "MIC", "setting": "[15]", "value": 16, "unit": "µM"},
      {"measurement": "MIC", "setting": "[16]", "value": "≥ 32", "unit": "µM"},
      {"measurement": "MIC", "setting": "[17]", "value": "≥ 32", "unit": "µM"},
      {"measurement": "MIC", "setting": "[18]", "value": "≥ 512", "unit": "µM"},
      {"measurement": "MIC", "setting": "[19]", "value": 16, "unit": "µM"},
      {"measurement": "MIC", "setting": "[20]", "value": 64, "unit": "µM"}
    ]},
    {"compound": "CC(C)C[C@H](NC(=O)[C@H](CCCN=C(N)N)NC(=O)[C@H](CO)NC(=O)[C@H](Cc1cnc[nH]1)NC(=O)[C@@H](N)CCCN=C(N)N)C(=O)N[C@@H](CCC(N)=O)C(=O)N[C@@H](CCCN=C(N)N)C(=O)N[C@@H](CCC(=O)O)C(=O)N1CCC[C@H]1C(=O)N[C@@H](CCC(N)=O)C(=O)N[C@H](C(=O)N[C@@H](CCC(N)=O)C(=O)N[C@@H](Cc1c[nH]c2ccccc12)C(=O)N[C@@H](CC(C)C)C(=O)N[C@@H](CCC(=O)O)C(=O)N[C@@H](CCC(N)=O)C(=O)N[C@@H](CCC(N)=O)C(=O)N[C@H](C(=O)N[C@@H](C)C(=O)N[C@@H](CCCCN)C(=O)N[C@@H](CCCN=C(N)N)C(=O)N[C@@H](CCCN=C(N)N)C(=O)N[C@H](C(=O)N[C@@H](CCCCN)C(=O)N[C@@H](CCCN=C(N)N)C(=O)O)[C@@H](C)O)C(C)C)C(C)C", "note": "[RHSRLQREPQVQWLEQQVAKRRTKR]", "values": [
      {"measurement": "MIC", "setting": "[21]", "value": "≥ 100", "unit": "µM"},
      {"measurement": "MIC", "setting": "Bacillus subtilis", "value": "≥ 100", "unit": "µM"},
      {"measurement": "MIC", "setting": "[8]", "value": "> 100", "unit": "µM"},
      {"measurement": "MIC", "setting": "[22]", "value": "≥ 100", "unit": "µM"},
      {"measurement": "MIC", "setting": "[23]", "value": "> 100", "unit": "µM"},
      {"measurement": "MIC", "setting": "[24]", "value": "> 100", "unit": "µM"},
      {"measurement": "MIC", "setting": "Escherichia coli", "value": "> 100", "unit": "µM"},
      {"measurement": "MIC", "setting": "[20]", "value": "> 100", "unit": "µM"}
    ]},
    {"compound": "CC(C)C[C@H](NC(=O)[C@H](Cc1c[nH]c2ccccc12)NC(=O)[C@H](CCCN=C(N)N)NC(=O)[C@H](CC(C)C)NC(=O)[C@H](Cc1c[nH]c2ccccc12)NC(=O)[C@H](CC(C)C)NC(=O)[C@H](CC(C)C)NC(=O)[C@H](Cc1c[nH]c2ccccc12)NC(=O)[C@@H](N)CC(C)C)C(N)=O", "note": "[LWLLWLRWL]", "values": [
      {"measurement": "MIC", "setting": "[6]", "value": 3.12, "unit": "µM"}
    ]},
    {"compound": "CC(C)C[C@H](NC(=O)[C@H](Cc1c[nH]c2ccccc12)NC(=O)[C@H](CCCCN)NC(=O)[C@H](CC(C)C)NC(=O)[C@H](CC(C)C)NC(=O)[C@H](CCCCN)NC(=O)[C@@H](N)CCCCN)C(N)=O", "note": "[KKLLKWL]", "values": [
      {"measurement": "MIC", "setting": "[6]", "value": "≥ 100", "unit": "µM"}
    ]},
    {"compound": "CC(C)C[C@H](NC(=O)[C@H](CC(C)C)NC(=O)[C@@H](NC(=O)[C@@H](N)CCCCN)[C@@H](C)O)C(=O)N[C@@H](CCCCN)C(=O)N[C@@H](CCCCN)C(=O)N[C@H](C(=O)N[C@@H](CC(C)C)C(=O)N[C@@H](CCCCN)C(=O)N[C@@H](C)C(=O)N[C@@H](C)C(=O)N[C@@H](C)C(N)=O)C(C)C", "note": "[KTLLKKVLKAAA]", "values": [
      {"measurement": "MIC", "setting": "[11]", "value": "> 50", "unit": "µM"},
      {"measurement": "MIC", "setting": "[25]", "value": "≥ 50", "unit": "µM"},
      {"measurement": "MIC", "setting": "[23]", "value": "> 50", "unit": "µM"},
      {"measurement": "MIC", "setting": "[26]", "value": "≥ 50", "unit": "µM"}
    ]},
    {"compound": "C[C@@H](O)[C@H](N)C(=O)N[C@@H](CCCN=C(N)N)C(=O)N[C@H](C(=O)N[C@@H](CCCN=C(N)N)C(N)=O)[C@@H](C)O", "note": "[TRTR]", "values": [
      {"measurement": "MIC", "setting": "[5]", "value": "≥ 100", "unit": "µM"}
    ]}
  ]
}
